# The star is where a group is joined. K(dye2) = lysine labeled with dye2 = 5-carboxy-2′,7′-dipyridyl-sulfonefluorescein; K(tet) = lysine labeled with tet = 2′,7′,4,7-tetrachloro-5-carboxy fluorescein; Heptadecanoyl = CCCCCCCCCCCCCCCCC(=O)*; Pentadecanoyl = CCCCCCCCCCCCCCC(=O)*; Palmitoyl = CCCCCCCCCCCCCCCC(=O)*; Tridecanoyl = CCCCCCCCCCCCC(=O)*; AEEA = NCCOCCOCC(=O)O
# Assays:
# PKC = assay: Fluorescence of micelle with signal molecule upon treatment with protein kinase (Table 19); format: biochemical; settings: for RFUs at 10 uL (final): after kinase; for RFUs at 10 uL (initial): before kinase
# Excerpt: (§1) Table 19 also provides the specific protein kinase that can be used to modify each of these signal molecules, as well as the fluorescence observed with a micelle comprising the signal molecules upon treatment with the specified protein kinase.
# [1] = cited from earlier work
# Src, lyn, fyn = assay: Fluorescence of micelle with signal molecule upon treatment with protein kinase (Table 19); format: biochemical; settings: Conc 8 uM
# Excerpt: as §1
# [2] = normalized: phenylalanine 100, glycine 0; cited from earlier work
# Akt = assay: Fluorescence of micelle with signal molecule upon treatment with protein kinase (Table 19); format: biochemical; settings: Conc 8 uM
# Excerpt: as §1
# MAPK = assay: as above; format: biochemical; settings: Conc 16 uM
# Excerpt: as §1
# PKA = assay: as above; format: biochemical; settings: Conc 8 uM; for RFUs at 10 uL (final): after kinase; for RFUs at 10 uL (initial): before kinase
# Excerpt: as §1
# MAPKAP2 = MAPKAP2 (Homo sapiens, UniProt P49137); assay: as above; format: biochemical; settings: Conc 8 uM
# Excerpt: as §1
# Chain of MAPKAP2 (P49137 whole entry): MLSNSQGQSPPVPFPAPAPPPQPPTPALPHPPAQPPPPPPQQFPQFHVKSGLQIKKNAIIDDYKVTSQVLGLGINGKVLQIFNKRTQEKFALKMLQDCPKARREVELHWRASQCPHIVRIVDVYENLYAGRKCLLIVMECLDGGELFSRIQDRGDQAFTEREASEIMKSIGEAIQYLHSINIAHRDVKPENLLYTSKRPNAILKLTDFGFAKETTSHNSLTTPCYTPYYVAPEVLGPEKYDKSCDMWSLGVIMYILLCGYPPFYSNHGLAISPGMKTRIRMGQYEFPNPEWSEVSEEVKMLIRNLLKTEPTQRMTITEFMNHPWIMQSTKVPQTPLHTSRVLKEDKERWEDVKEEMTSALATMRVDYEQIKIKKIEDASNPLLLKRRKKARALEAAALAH
compound,measurement,setting,value
"C16-OOOK(dye2)-RREGSFR-NH2: peptide-dye signal molecule for PKC; O = 2-aminoethoxy-2-ethoxyacetyl linker, dye2 = 5-carboxy-2′,7′-dipyridyl-sulfonefluorescein ({Palmitoyl-AEEA-AEEA-AEEA-K(dye2)}-RREGSFR-NH2)",Fold increase,PKC; Conc 4 uM,4.5x
same,RFUs at 10 uL (final),PKC; Conc 4 uM,3000 RFU
same,RFUs at 10 uL (initial),PKC; Conc 4 uM,650 RFU
"N[C@@H](CO)C(=O)O [Serine (S), Serine]",Side chain pKa,[1],˜13
"C16-OOOK(dye2)RIGEGTYGVVRR-NH2: peptide-dye signal molecule for Src, lyn, fyn; dye2 = 5-carboxy-2′,7′-dipyridyl-sulfonefluorescein ({Palmitoyl-AEEA-AEEA-AEEA-K(dye2)}-RIGEGTYGVVRR-NH2)",Fold increase,"Src, lyn, fyn",6.5x
same,RFUs at 10 uL (final),"Src, lyn, fyn; after kinase",6500 RFU
same,RFUs at 10 uL (initial),"Src, lyn, fyn; before kinase",1000 RFU
"C17-OOOK(tet)-RQGSFRA-NH2: peptide-dye signal molecule for PKC; tet = 2′,7′,4,7-tetachloro-5-carboxy fluorescein ({Heptadecanoyl-AEEA-AEEA-AEEA-K(tet)}-RQGSFRA-NH2)",Fold increase,PKC; Conc 6 uM,7x
same,RFUs at 10 uL (final),PKC; Conc 6 uM,4900 RFU
same,RFUs at 10 uL (initial),PKC; Conc 6 uM,700 RFU
"O=C(O)[C@@H]1CCCN1 [Proline (P), Proline]",Monera et al. Hydrophobicity (pH 2),[2],−46
"C15-OOOK(dye2)RPRTSSF-NH2: peptide-dye signal molecule for Akt; dye2 = 5-carboxy-2′,7′-dipyridyl-sulfonefluorescein ({Pentadecanoyl-AEEA-AEEA-AEEA-K(dye2)}-RPRTSSF-NH2)",Fold increase,Akt,4x
same,RFUs at 10 uL (final),Akt; after kinase,7500 RFU
same,RFUs at 10 uL (initial),Akt; before kinase,1500 RFU
"C17-OOOK(dye2)PRTPGGR-NH2: peptide-dye signal molecule for MAPK; dye2 = 5-carboxy-2′,7′-dipyridyl-sulfonefluorescein ({Heptadecanoyl-AEEA-AEEA-AEEA-K(dye2)}-PRTPGGR-NH2)",Fold increase,MAPK,5x
same,RFUs at 10 uL (final),MAPK; after kinase,5700 RFU
same,RFUs at 10 uL (initial),MAPK; before kinase,1100 RFU
"C13-K(dye2)-LRRASLG-NH2: peptide-dye signal molecule for PKA; dye2 = 5-carboxy-2′,7′-dipyridyl-sulfonefluorescein, C-terminus amidated ({Tridecanoyl-K(dye2)}-LRRASLG-NH2)",Fold increase,PKA,5x
same,RFUs at 10 uL (final),PKA,5000 RFU
same,RFUs at 10 uL (initial),PKA,1000 RFU
"C[C@@H](O)[C@H](N)C(=O)O [Threonine (T), Threonine]",Side chain pKa,[1],˜13
"C16-OOOK(dye2)RLNRTLSV-NH2: peptide-dye signal molecule for MAPKAP2; dye2 = 5-carboxy-2′,7′-dipyridyl-sulfonefluorescein ({Palmitoyl-AEEA-AEEA-AEEA-K(dye2)}-RLNRTLSV-NH2)",Fold increase,MAPKAP2,4x
same,RFUs at 10 uL (final),MAPKAP2; after kinase,3200 RFU
same,RFUs at 10 uL (initial),MAPKAP2; before kinase,800 RFU
"C13-OOOK(dye2)-LRRASLG-NH2: peptide-dye signal molecule for PKA; O = 2-aminoethoxy-2-ethoxyacetyl linker, dye2 = 5-carboxy-2′,7′-dipyridyl-sulfonefluorescein ({Tridecanoyl-AEEA-AEEA-AEEA-K(dye2)}-LRRASLG-NH2)",Fold increase,PKA,5x
same,RFUs at 10 uL (final),PKA,5000 RFU
same,RFUs at 10 uL (initial),PKA,1000 RFU

# Reference: patent US20050244891A1, “Ligand-containing micelles and uses thereof” (Applera Corporation, priority 2003, published 2005)
